From US9102648B1, “Bioavailable diacylhydrazine ligands for modulating the expression of exogenous genes via an ecdysone receptor complex” (Intrexon Corporation, priority 2003, dated 2015)
Where two headings read alike, the source gives them in different places.

What was measured:
[1] = target: T1, Bombyx mori EcR (VP16 fusion, CVBE switch construct) (Bombyx mori, UniProt P49881); experiment: Z3 Assay (HEK-293 cells with CVBE and 6XEcRE LacZ, β-galactosidase reporter); details: for Fold Induction, Z3 Assay, 3.3 uM: 3.3 uM ligand; for Fold Induction, Z3 Assay, 3.3 uM / Fold Induction, Z3 Assay, 33 uM: ligand treated / DMSO treated cells; for Fold Induction, Z3 Assay, 33 uM: 33 uM ligand; for Z3 assay Rel Max FI: maximum fold induction at any concentration relative to that of GS-E ligand; for fold induction at 33 µM: HEK293, read-out: Fold Induction, Z3 Assay, 33 uM; for fold induction at 3.3 µM: HEK293, read-out: Fold Induction, Z3 Assay, 3.3 uM
T1 sequence (P49881 86-606): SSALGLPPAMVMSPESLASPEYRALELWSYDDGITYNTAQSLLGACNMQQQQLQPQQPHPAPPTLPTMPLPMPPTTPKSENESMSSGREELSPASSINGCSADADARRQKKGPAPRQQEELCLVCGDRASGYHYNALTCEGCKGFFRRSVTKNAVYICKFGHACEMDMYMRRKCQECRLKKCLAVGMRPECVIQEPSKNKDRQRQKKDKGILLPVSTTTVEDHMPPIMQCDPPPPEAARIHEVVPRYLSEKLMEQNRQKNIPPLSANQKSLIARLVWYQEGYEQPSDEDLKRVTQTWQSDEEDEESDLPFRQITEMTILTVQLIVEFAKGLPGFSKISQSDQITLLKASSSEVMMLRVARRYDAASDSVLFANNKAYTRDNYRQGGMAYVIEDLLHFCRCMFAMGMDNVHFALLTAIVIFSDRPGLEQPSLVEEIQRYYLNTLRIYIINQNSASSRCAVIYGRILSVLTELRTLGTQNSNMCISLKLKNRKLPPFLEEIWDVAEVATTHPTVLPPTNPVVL
T1 sequence (P19793 1-462 partner): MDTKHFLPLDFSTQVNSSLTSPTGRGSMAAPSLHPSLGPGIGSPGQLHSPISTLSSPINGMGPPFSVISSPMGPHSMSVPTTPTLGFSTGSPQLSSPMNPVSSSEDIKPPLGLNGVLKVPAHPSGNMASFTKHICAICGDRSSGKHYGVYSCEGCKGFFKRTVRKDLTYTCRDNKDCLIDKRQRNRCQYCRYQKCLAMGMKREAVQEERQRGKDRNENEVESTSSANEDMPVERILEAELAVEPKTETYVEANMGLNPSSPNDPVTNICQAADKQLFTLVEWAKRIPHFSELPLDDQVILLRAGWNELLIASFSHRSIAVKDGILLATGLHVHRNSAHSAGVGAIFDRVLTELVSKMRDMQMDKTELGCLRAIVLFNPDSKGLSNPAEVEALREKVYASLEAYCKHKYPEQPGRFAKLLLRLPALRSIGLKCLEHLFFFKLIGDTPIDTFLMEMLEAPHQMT

[2] = target: GAL4 DBD-CfEcR(DEF)/VP16AD-MmRXRE (Choristoneura fumiferana, UniProt O77240); experiment: 13B3 Assay (CHO stable cell line, luciferase reporter); details: for Fold Induction, 13B3 Assay, 33 uM: 33 uM ligand; for Fold Induction, 13B3 Assay, 33 uM / Fold Induction, 13B3 Assay, 3.3 uM: RLU ligand treated / RLU DMSO treated cells; for Fold Induction, 13B3 Assay, 3.3 uM: 3.3 uM ligand; for 13B3 assay Rel Max FI: maximum fold induction at any concentration relative to that of GS-E ligand, CHO 13B3 cells; for fold induction at 33 µM: read-out: Fold Induction, 13B3 Assay, 33 uM; for fold induction at 3.3 µM: read-out: Fold Induction, 13B3 Assay, 3.3 uM
In short: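 CHO 13B3 clone stably expressing GAL4 DBD–CfEcR(DEF) and VP16AD–MmRXR(DE) with GAL4 RE–luciferase reporter; cells plated 24 h at 37 °C, then treated with ligands (DMSO stocks diluted 300-fold), 8 concentrations 33–0.01 μM.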

[3] = read-out: Z3 assay EC50, HEK-293 Z3 cells, β-galactosidase reporter, average of two wells
[4] = read-out: 13B3 EC50, CHO 13B3 stable cell line, luciferase reporter, 48 h, average of two wells

Compound	Fold Induction, Z3 Assay, 3.3 uM ([1]; average of two wells)	Fold Induction, Z3 Assay, 33 uM ([1]; average of two wells)	Z3 assay Rel Max FI ([1]; HEK-293 Z3 cells)	EC50 [1, 3]	Fold Induction, 13B3 Assay, 33 uM ([2]; average of two wells)	Fold Induction, 13B3 Assay, 3.3 uM ([2]; average of two wells)	13B3 assay Rel Max FI [2]	EC50 [2, 4]	fold induction at 33 µM [1]	fold induction at 33 µM [2]	EC50 [1]	fold induction at 3.3 µM [1]	EC50 [2]	fold induction at 3.3 µM [2]
CCc1c(OC)cccc1C(=O)NN(C(=O)c1cccc(C#N)c1)C(C)(C)C [RG-115327]	279	325	0.662	2750 nM	3785	–	–	–	–	–	–	–	–	–
CC(C)(C)N(NC(=O)c1c(F)ccc(F)c1F)C(=O)c1ccc(F)cc1Cl [RG-100620]	710	428	0.869	2400 nM	13982	–	–	–	–	–	–	–	–	–
CCc1c(OC)cccc1C(=O)NN(C(=O)c1cc(OC)c(OC(C)=O)c(OC)c1)C(C)(C)C [RG-115191]	386	–	0.934	2400 nM	–	3	1.513	> 50000 nM	–	–	–	–	–	–
COc1cc(C(=O)N(NC(=O)c2ccc3c(c2C)OCCO3)C(C)(C)C)c([N+](=O)[O-])c(OC)c1C [RG-115609, 3,5-dimethoxy-4-methyl-2-nitrobenzoic acid N-t-butyl-N′-(5-methy-1benzo-1,4-dioxan-6-carbonyl)-hydrazide]	90	383	0.625	1390 nM	4217	558	0.883	13800 nM	–	–	–	–	–	–
CCc1ccc(C(=O)NN(C(=O)c2cc(OC)c(C)c(OC)c2)C(C)(C)C)c(F)c1 [RG-115077]	294	–	0.911	389 nM	199	932	1.509	847 nM	–	–	–	–	–	–
COc1ccc(Cl)cc1C(=O)N(NC(=O)c1cccc(C)c1C)C(C)(C)C [RG-101178]	1200	431	0.887	1320 nM	699	–	–	–	–	–	–	–	–	–
Cc1c(C(=O)NN(C(=O)c2ccccc2[S+](C)[O-])C(C)(C)C)ccc2c1OCCO2 (centres unmarked) [RG-115064]	1	3	0.031	> 50000 nM	415	2	0.000	> 50000 nM	–	–	–	–	–	–
C=CCOCc1c(OC)cccc1C(=O)NN(C(=O)c1cc(C)cc(C)c1)C(C)(C)C [RG-115003, 3,5-dimethyl-benzoic acid N′-(2-allyloxymethyl-3-methoxy-benzoyl)-N-tert-butyl-hydrazide]	–	–	–	–	–	–	–	–	1280	301	–	–	–	–
CCc1ccc(C(=O)NN(C(=O)c2cc(C)c(Cl)c(C)c2)C(C)(C)C)cc1 [RG-101862]	717	250	0.866	269 nM	293	3279	0.861	1050 nM	–	–	–	–	–	–
COc1cccc(C(=O)NN(C(=O)c2cc(C)cc(C)c2)C(C)(C)C)c1C[S+](C)[O-] (centres unmarked) [RG-115172]	1	216	0.32	> 50000 nM	–	1	0	> 50000 nM	–	–	–	–	–	–
CCc1ccc(C(=O)NN(C(=O)c2cccc(C)c2)C(C)(C)C)c(F)c1 [RG-115674]	319	–	0.995	229 nM	–	442	0.875	1720 nM	–	–	–	–	–	–
CCc1c(OC)cccc1C(=O)NN(C(=O)c1cc(F)cc(C(F)(F)F)c1)C(C)(C)C [RG-115088]	561	228	0.958	501 nM	1048	542	0.709	1830 nM	–	–	–	–	–	–
CCc1c(OC)cccc1C(=O)NN(C(=O)c1cccc(F)c1F)C(C)(C)C [RG-115627]	378	362	0.840	813 nM	10058	1291	0.854	921 nM	–	–	–	–	–	–
CCc1c(OC)cccc1C(=O)NN(C(=O)c1cccc(Br)c1)C(C)(C)C [RG-115038]	600	321	1.064	550 nM	4970	4119	1.172	1740 nM	–	–	–	–	–	–
CCc1c(OC)cccc1C(=O)NN(C(=O)c1cc(OC)ccc1OC)C(C)(C)C [RG-100779]	947	304	0.707	178 nM	2979	–	–	–	–	–	–	–	–	–
Cc1cc(C)cc(C(=O)N(NC(=O)c2ccc3c(c2C)CCCO3)C(C)(C)C)c1 [RG-102408]	249	–	1.114	54 nM	–	25	0.662	91 nM	–	–	–	–	–	–
COc1cccc(C(=O)NN(C(=O)c2cc(C)cc(C)c2)C(C)(C)C)c1COC(C)=O [RG-115225, 3,5-dimethyl-benzoic acid N-tert-butyl-N′-(2-acetoxymethyl-3-methoxy-benzoyl)-hydrazide]	–	–	0.32	–	–	–	0.08	–	571	8	> 50000 nM	3	580 nM	3
CNCc1c(OC)cccc1C(=O)NN(C(=O)c1cc(C)cc(C)c1)C(C)(C)C [RG-115079, 3,5-dimethyl-benzoic acid N-tert-butyl-N′-(2-methylaminomethyl-3-methoxy-benzoyl)-hydrazide]	–	–	0.02	–	–	–	0.20	–	–	–	> 50000 nM	1	20 nM	3
